# Results as given in paper PMC11348715 (Chemical Science, 2024).
# Assay: Caco-2 permeability assay
# Format: in vitro ADME
# Details: human
row,SMILES,Papp A→B at 10 µM
1,C[C@H]1O[C@@H](O[C@H]2[C@@H](O)C[C@H](O[C@H]3[C@@H](O)C[C@H](O[C@H]4CC[C@@]5(C)[C@H](CC[C@@H]6[C@@H]5C[C@@H](O)[C@]5(C)[C@@H](C7=CC(=O)OC7)CC[C@]65O)C4)O[C@@H]3C)O[C@@H]2C)C[C@H](O)[C@@H]1O [digoxin],1.59 ×10⁻⁶ cm/s
2,COCCc1ccc(OCC(O)CNC(C)C)cc1 (centres unmarked) [metoprolol],19.8 ×10⁻⁶ cm/s
